From PMC10257182, “Discovery of senolytics using machine learning” (Nature Communications, 2023)
Where “and” joins values, the source holds several entries; their conditions need not be identical. Identical values can stand only once. Like-named read-outs stand apart in the source and are kept apart here.

Test system: non-senescent control IMR90 ER:RAS cells
Test: Nuclei count (Hoechst, high content imaging) senolytic assay, OIS model, non-senescent control cells
Format: cell-based, human
Excerpt: To test for senolytic activity, we compared the effect of each compound on the total cell number (automated high content image-based analysis of total number of nuclei per well) in non-senescent and senescent IMR90 ER:RAS cultures treated with the top hits from the computational screen (Figs. 2e and 3a–d and Supplementary Fig. 4a–c). The drop in cell number compared to untreated controls is indicated by the nuclei count and reflects cell death[13],[15]. As positive control, we employed ouabain, a cardiac glycoside with well characterised senolytic activity.
We performed experimental validation of the compounds with z-score > 8 (Fig. 2e). […] We employed two cellular models of senescence: one of OIS and a second one of TIS. For the OIS case, we utilised IMR90 ER:RAS cells with 4-OHT at 100 nM. […] For the TIS model, we used A549 cells with etoposide at 100 μM. The exposure of the cells to etoposide lasted 48 h, after which period the cells were cultivated for a further three days with normal media.
IMR90 (CCL-186) human foetal lung fibroblasts and A549 (CCL-185) human lung adenocarcinoma cells were obtained from the American Type Culture Collection (ATCC, Manassas, VA). The cell lines were confirmed to be mycoplasma negative (Lonza MycoAlert, cat #LT07-118). IMR90 ER:RAS is a derivative of IMR90 cells expressing a switchable version of oncogenic H-Ras[84]. IMR90 ER:RAS and A549 cells were maintained in Dulbecco’s Modified Eagle Medium (DMEM, ThermoFisher) supplemented with foetal bovine serum (10%), L-glutamine (2 mM, ThermoFisher), and antibiotic-antimycotic solution (1%, ThermoFisher) and incubated under standard tissue culture conditions (37 °C and 5% CO2). For induction of the senescent phenotype, IMR90-ER:RAS cells were cultured in hydroxytamoxifen (4-OHT) (Sigma) added media at 100 nM final concentration. IMR90 were kept in culture for over 27 passages for replicative senescence. Cells were tested for mycoplasma on a regular basis.
Cells were seeded (50 μL per well) into 384-well plates (IMR90 ER:RAS cells in Nunc Optical Bottom Polybase Microplates [#142761, Thermo Scientific, Rochester, NY] and A549 cells in CELLSTAR Cell Culture Microplates [#781091, Greiner Bio-One, Kremsmünster, Austria]). Cells were incubated under standard tissue culture conditions for 24 h before the addition of compounds. Passage 14 IMR90 ER:RAS cells were seeded at 1300 cells per well in the control condition, and at 1600 cells per well in the senescent case. Passage 34 A549 cells were seeded at 7000 cells per well in the control condition, and at 10,000 cells per well in the senescent case.
Dose response plates were prepared with a DMSO control and a 10-point […] concentration range, and added to the compounds using a D300e digital dispenser (Tecan Trading AG, Switzerland) at a final concentration of between 10 μM and 10 nM. Every screened condition was carried out in triplicate. After 72 h of incubation with exposure to the compounds, cells were fixed by the addition of an equal volume of formaldehyde (8%, 50 μL; #BP531-500, Fisher Bioreagents, Fisher Scientific, Loughborough, Leicestershire) to the existing media, incubated at room temperature (30 min), and washed three times in phosphate-buffered saline (PBS). Cells were then permeabilised in Triton-X100 (0.1%, 50 μL) and incubated at room temperature (30 min) followed by three more washes with PBS.
Cells were stained with Hoechst 33342 for nuclei count (excitation/emission wavelength at 387/447 […], DAPI channel, original concentration at 10 mg/ml, final concentration at 2 μg/ml; H1399, Molecular Probes, Eugene, OR). The staining solution was prepared in bovine serum albumin solution (10%). The staining solution was added to each well (30 μL) and incubated in the dark at room temperature (30 min), followed by three washes with PBS and no final aspiration. Plates were foil sealed.

[1] = Control cells, log (dose) [M] -5, individual replicates, SUP FIG 4C
[2] = Control cells, log (dose) [M] -5.33, individual replicates, SUP FIG 4C
[3] = Control cells, log (dose) [M] -5.66, individual replicates, SUP FIG 4C
[4] = Control cells, log (dose) [M] -6, individual replicates, SUP FIG 4C
[5] = Control cells, log (dose) [M] -6.33, individual replicates, SUP FIG 4C
[6] = Control cells, log (dose) [M] -6.66, individual replicates, SUP FIG 4C
[7] = Control cells, log (dose) [M] -7, individual replicates, SUP FIG 4C
[8] = Control cells, log (dose) [M] -7.33, individual replicates, SUP FIG 4C
[9] = Control cells, log (dose) [M] -7.66, individual replicates, SUP FIG 4C
[10] = Control cells, log (dose) [M] -8, individual replicates, SUP FIG 4C
[11] = Control, log (dose) [M] -5, 72 h, mean n=3 (Fig 3C)
[12] = Control, log (dose) [M] -5.33, 72 h, mean n=3 (Fig 3C)
[13] = Control, log (dose) [M] -5.66, 72 h, mean n=3 (Fig 3C)
[14] = Control, log (dose) [M] -6, 72 h, mean n=3 (Fig 3C)
[15] = Control, log (dose) [M] -6.33, 72 h, mean n=3 (Fig 3C)
[16] = Control, log (dose) [M] -6.66, 72 h, mean n=3 (Fig 3C)
[17] = Control, log (dose) [M] -7, 72 h, mean n=3 (Fig 3C)
[18] = Control, log (dose) [M] -7.33, 72 h, mean n=3 (Fig 3C)
[19] = Control, log (dose) [M] -7.66, 72 h, mean n=3 (Fig 3C)
[20] = Control, log (dose) [M] -8, 72 h, mean n=3 (Fig 3C)

SMILES	% Cell Survival [1]	% Cell Survival [2]	% Cell Survival [3]	% Cell Survival [4]	% Cell Survival [5]	% Cell Survival [6]	% Cell Survival [7]	% Cell Survival [8]	% Cell Survival [9]	% Cell Survival [10]	Mean % Cell Survival [11]	Mean % Cell Survival [12]	Mean % Cell Survival [13]	Mean % Cell Survival [14]	Mean % Cell Survival [15]	Mean % Cell Survival [16]	Mean % Cell Survival [17]	Mean % Cell Survival [18]	Mean % Cell Survival [19]	Mean % Cell Survival [20]	also measured
Cc1c(NC(=O)OC[C@@H]2COCCN2)cn2ncnc(Nc3ccc4c(cnn4Cc4cccc(F)c4)c3)c12.Cl.Cl [BMS 599626 2HCL, BMS 599626 dihydrochloride]	105.353% and 91.3279% and 103.579%	86.7238% and 73.5321% and 81.9018%	118.415% and 87.5339% and 100.613%	100.107% and 87.4435% and 90.184%	111.884% and 90.2439% and 100.716%	106.852% and 86.4499% and 109.816%	101.927% and 74.8871% and 92.5358%	103.426% and 89.7922% and 99.3865%	119.807% and 91.5989% and 105.93%	100.749% and 77.0551% and 102.454%	100.087%	80.7192%	102.188%	92.5782%	100.948%	101.039%	89.7834%	97.535%	105.779%	93.4195%	% Cell Survival (Control, log (dose) [M] -5): 100.351% and 111.029% and 102.815%; % Cell Survival (Control, log (dose) [M] -5.33): 101.964% and 126.351% and 107.239%; % Cell Survival (Control, log (dose) [M] -5.66): 131.276% and 125.833% and 112.534%; % Cell Survival (Control, log (dose) [M] -6): 101.823% and 113.768% and 114.812%; % Cell Survival (Control, log (dose) [M] -6.33): 107.574% and 113.397% and 102.681%; % Cell Survival (Control, log (dose) [M] -6.66): 98.317% and 111.029% and 104.088%; % Cell Survival (Control, log (dose) [M] -7): 103.156% and 106.366% and 100.335%; % Cell Survival (Control, log (dose) [M] -7.33): 103.086% and 108.882% and 96.7828%; % Cell Survival (Control, log (dose) [M] -7.66): 97.5456% and 102.221% and 100.201%; % Cell Survival (Control, log (dose) [M] -8): 96.0028% and 99.7779% and 101.072%
CO[C@H]1C[C@@H]2CC[C@@H](C)[C@@](O)(O2)C(=O)C(=O)N2CCCC[C@H]2C(=O)O[C@H]([C@H](C)C[C@@H]2CC[C@@H](OCCO)[C@H](OC)C2)CC(=O)[C@H](C)/C=C(\C)[C@@H](O)[C@@H](OC)C(=O)[C@H](C)C[C@H](C)/C=C/C=C/C=C/1C [Everolimus, everolimus, reference compound]																					viability at 10 µM (Homo sapiens, IMR-90, 72 h, Control, log (dose) [M] -5, 72 h, mean n=3 (Fig 3C), read-out: Mean % Cell Survival): 107%; viability at 4.677 µM (Homo sapiens, IMR-90, 72 h, Control, log (dose) [M] -5.33, 72 h, mean n=3 (Fig 3C), read-out: Mean % Cell Survival): 109%; viability at 2.188 µM (Homo sapiens, IMR-90, 72 h, Control, log (dose) [M] -5.66, 72 h, mean n=3 (Fig 3C), read-out: Mean % Cell Survival): 107%; viability at 1 µM (Homo sapiens, IMR-90, 72 h, Control, log (dose) [M] -6, 72 h, mean n=3 (Fig 3C), read-out: Mean % Cell Survival): 104%; viability at 0.4677 µM (Homo sapiens, IMR-90, 72 h, Control, log (dose) [M] -6.33, 72 h, mean n=3 (Fig 3C), read-out: Mean % Cell Survival): 105%; viability at 0.2188 µM (Homo sapiens, IMR-90, 72 h, Control, log (dose) [M] -6.66, 72 h, mean n=3 (Fig 3C), read-out: Mean % Cell Survival): 100%; viability at 0.1 µM (Homo sapiens, IMR-90, 72 h, Control, log (dose) [M] -7, 72 h, mean n=3 (Fig 3C), read-out: Mean % Cell Survival): 109%; viability at 0.04677 µM (Homo sapiens, IMR-90, 72 h, Control, log (dose) [M] -7.33, 72 h, mean n=3 (Fig 3C), read-out: Mean % Cell Survival): 105%; viability at 0.02188 µM (Homo sapiens, IMR-90, 72 h, Control, log (dose) [M] -7.66, 72 h, mean n=3 (Fig 3C), read-out: Mean % Cell Survival): 102%; viability at 0.01 µM (Homo sapiens, IMR-90, 72 h, Control, log (dose) [M] -8, 72 h, mean n=3 (Fig 3C), read-out: Mean % Cell Survival): 104%; viability at 4.68 µM (Homo sapiens, IMR-90, Control, log (dose) [M] -5.33, read-out: % Cell Survival): 107%; viability at 2.19 µM (Homo sapiens, IMR-90, Control, log (dose) [M] -5.66, read-out: % Cell Survival): 108%; viability at 1 µM (Homo sapiens, IMR-90, Control, log (dose) [M] -6, read-out: % Cell Survival): 106%; viability at 0.468 µM (Homo sapiens, IMR-90, Control, log (dose) [M] -6.33, read-out: % Cell Survival): 92.7%; viability at 0.219 µM (Homo sapiens, IMR-90, Control, log (dose) [M] -6.66, read-out: % Cell Survival): 109%; viability at 0.1 µM (Homo sapiens, IMR-90, Control, log (dose) [M] -7, read-out: % Cell Survival): 105%; viability at 0.04677 µM (Homo sapiens, IMR-90, Control, log (dose) [M] -7.33, read-out: % Cell Survival): 116%; viability at 0.0219 µM (Homo sapiens, IMR-90, Control, log (dose) [M] -7.66, read-out: % Cell Survival): 115%; viability at 0.01 µM (Homo sapiens, IMR-90, Control, log (dose) [M] -8, read-out: % Cell Survival): 118%
CC(C)=CCc1c(O)cc2oc3cc(O)c(O)c(CC=C(C)C)c3c(=O)c2c1O [Gamma mangostin, gamma mangostin]	83.3507% and 108.05% and 79.5367% and 95.8097%	87.0968% and 96.0317% and 81.9498% and 89.128%	85.64% and 147.846% and 85.3282% and 103.058%	61.4984% and 93.424% and 84.0734% and 96.1495%	89.5942% and 95.6916% and 116.216% and 74.9717%	89.282% and 97.3923% and 91.7954% and 95.8097%	92.924% and 97.5057% and 90.1544% and 99.6602%	93.7565% and 97.2789% and 93.4363% and 109.513%	96.9823% and 99.8866% and 98.9382% and 108.494%	107.7% and 97.0522% and 93.3398% and 109.173%	91.6867%	88.5516%	105.468%	83.7863%	94.1184%	93.5698%	95.0611%	98.4962%	101.075%	101.816%	% Cell Survival (Control, log (dose) [M] -5): 92.5926% and 96.693% and 91.9267%; % Cell Survival (Control, log (dose) [M] -5.33): 94.2308% and 86.4127% and 82.768%; % Cell Survival (Control, log (dose) [M] -5.66): 90.6695% and 83.6808% and 81.9539%; % Cell Survival (Control, log (dose) [M] -6): 85.6125% and 87.1316% and 81.6147%; % Cell Survival (Control, log (dose) [M] -6.33): 95.7977% and 84.3997% and 85.8209%; % Cell Survival (Control, log (dose) [M] -6.66): 91.7379% and 85.9813% and 84.5319%; % Cell Survival (Control, log (dose) [M] -7): 95.6553% and 92.739% and 90.502%; % Cell Survival (Control, log (dose) [M] -7.33): 96.8661% and 91.0137% and 90.4342%; % Cell Survival (Control, log (dose) [M] -7.66): 96.7236% and 96.7649% and 94.3691%; % Cell Survival (Control, log (dose) [M] -8): 100.783% and 103.882% and 95.7938%
